Values after ≈ are worked out from the molar mass of the structure shown.
Legend:
[1] = tested on: KM12; test: Growth inhibition of human KM12 cells at 10 uM relative to control; format: functional; conditions: read-out: GI
[2] = tested on: LOX IMVI; test: Growth inhibition of human LOX IMVI cells at 10 uM relative to control; format: functional; conditions: read-out: GI
[3] = tested on: Malme-3M; test: Growth inhibition of human Malme-3M cells at 10 uM relative to control; format: functional; conditions: read-out: GI
[4] = tested on: DU-145; test: Growth inhibition of human DU-145 cells at 10 uM relative to control; format: functional; conditions: read-out: GI
[5] = tested on: RPMI-8226; test: Growth inhibition of human RPMI-8226 cells at 10 uM relative to control; format: functional; conditions: read-out: GI
[6] = tested on: COLO 205; test: Growth inhibition of human COLO 205 cells at 10 uM relative to control; format: functional; conditions: read-out: GI
[7] = tested on: A549; test: Growth inhibition of human A549 cells at 10 uM relative to control; format: functional; conditions: read-out: GI
[8] = tested on: HOP-92; test: Growth inhibition of human HOP-92 cells at 10 uM relative to control; format: functional; conditions: read-out: GI
[9] = tested on: CAKI-1; test: Growth inhibition of human CAKI-1 cells at 10 uM relative to control; format: functional; conditions: read-out: GI
[10] = tested on: SF-268; test: Growth inhibition of human SF-268 cells at 10 uM relative to control; format: functional; conditions: read-out: GI
[11] = tested on: MDA-MB-468; test: Growth inhibition of human MDA-MB-468 cells at 10 uM relative to control; format: functional; conditions: read-out: GI
[12] = tested on: SF-295; test: Growth inhibition of human SF-295 cells at 10 uM relative to control; format: functional; conditions: read-out: GI
[13] = tested on: OVCAR-8; test: Growth inhibition of human OVCAR-8 cells at 10 uM relative to control; format: functional; conditions: read-out: GI
[14] = tested on: SF-539; test: Growth inhibition of human SF-539 cells at 10 uM relative to control; format: functional; conditions: read-out: GI
[15] = tested on: SK-MEL-2; test: Growth inhibition of human SK-MEL-2 cells at 10 uM relative to control; format: functional; conditions: read-out: GI
[16] = tested on: HCT-116; test: Growth inhibition of human HCT-116 cells at 10 uM relative to control; format: functional; conditions: read-out: GI
[17] = tested on: 786-0; test: Growth inhibition of human 786-0 cells at 10 uM relative to control; format: functional; conditions: read-out: GI
[18] = tested on: ACHN; test: Growth inhibition of human ACHN cells at 10 uM relative to control; format: functional; conditions: read-out: GI
[19] = tested on: NCI/ADR-RES; test: Growth inhibition of human NCI/ADR-RES cells at 10 uM relative to control; format: functional; conditions: read-out: GI
[20] = tested on: U-251; test: Growth inhibition of human U-251 cells at 10 uM relative to control; format: functional; conditions: read-out: GI
[21] = tested on: SNB-19; test: Growth inhibition of human SNB-19 cells at 10 uM relative to control; format: functional; conditions: read-out: GI
[22] = tested on: NCI-H322M; test: Growth inhibition of human NCI-H322M cells at 10 uM relative to control; format: functional; conditions: read-out: GI
[23] = tested on: UACC-62; test: Growth inhibition of human UACC-62 cells at 10 uM relative to control; format: functional; conditions: read-out: GI
[24] = tested on: CCRF-CEM; test: Growth inhibition of human CCRF-CEM cells at 10 uM relative to control; format: functional; conditions: read-out: GI
[25] = tested on: T47D; test: Growth inhibition of human T47D cells at 10 uM relative to control; format: functional; conditions: read-out: GI
[26] = tested on: TK-10; test: Growth inhibition of human TK-10 cells at 10 uM relative to control; format: functional; conditions: read-out: GI
[27] = tested on: SK-OV-3; test: Growth inhibition of human SK-OV-3 cells at 10 uM relative to control; format: functional; conditions: read-out: GI
[28] = tested on: HL-60(TB); test: Growth inhibition of human HL-60(TB) cells at 10 uM relative to control; format: functional; conditions: read-out: GI
[29] = tested on: HT-29; test: Growth inhibition of human HT-29 cells at 10 uM relative to control; format: functional; conditions: read-out: GI
[30] = tested on: UACC-257; test: Growth inhibition of human UACC-257 cells at 10 uM relative to control; format: functional; conditions: read-out: GI
[31] = tested on: HCT-15; test: Growth inhibition of human HCT-15 cells at 10 uM relative to control; format: functional; conditions: read-out: GI
[32] = tested on: SR; test: Growth inhibition of human SR cells at 10 uM relative to control; format: functional; conditions: read-out: GI
[33] = tested on: UO-31; test: Growth inhibition of human UO-31 cells at 10 uM relative to control; format: functional; conditions: read-out: GI
[34] = tested on: M14; test: Growth inhibition of human M14 cells at 10 uM relative to control; format: functional; conditions: read-out: GI
[35] = tested on: OVCAR-4; test: Growth inhibition of human OVCAR-4 cells at 10 uM relative to control; format: functional; conditions: read-out: GI
[36] = tested on: MCF7; test: Growth inhibition of human MCF7 cells at 10 uM relative to control; format: functional; conditions: read-out: GI
[37] = tested on: SN12C; test: Growth inhibition of human SN12C cells at 10 uM relative to control; format: functional; conditions: read-out: GI
[38] = biological target: DNA; test: Displacement of methyl green from DNA (unknown origin) assessed as DNA intercalation after 24 hrs by colorimetric assay; format: nucleic-acid assay
[39] = tested on: A498; test: Growth inhibition of human A498 cells at 10 uM relative to control; format: functional; conditions: read-out: GI
[40] = tested on: PC-3; test: Growth inhibition of human PC-3 cells at 10 uM relative to control; format: functional; conditions: read-out: GI
[41] = tested on: HCC 2998; test: Growth inhibition of human HCC 2998 cells at 10 uM relative to control; format: functional; conditions: read-out: GI
[42] = tested on: IGROV-1; test: Growth inhibition of human IGROV-1 cells at 10 uM relative to control; format: functional; conditions: read-out: GI
[43] = tested on: NCI-H226; test: Growth inhibition of human NCI-H226 cells at 10 uM relative to control; format: functional; conditions: read-out: GI
[44] = tested on: NCI-H522; test: Growth inhibition of human NCI-H522 cells at 10 uM relative to control; format: functional; conditions: read-out: GI
[45] = tested on: NCI-H460; test: Growth inhibition of human NCI-H460 cells at 10 uM relative to control; format: functional; conditions: read-out: GI
[46] = tested on: SK-MEL-5; test: Growth inhibition of human SK-MEL-5 cells at 10 uM relative to control; format: functional; conditions: read-out: GI
[47] = tested on: SW-620; test: Growth inhibition of human SW-620 cells at 10 uM relative to control; format: functional; conditions: read-out: GI
[48] = tested on: HOP-62; test: Growth inhibition of human HOP-62 cells at 10 uM relative to control; format: functional; conditions: read-out: GI
[49] = tested on: SK-MEL-28; test: Growth inhibition of human SK-MEL-28 cells at 10 uM relative to control; format: functional; conditions: read-out: GI
[50] = tested on: MDA-MB-231; test: Growth inhibition of human MDA-MB-231 cells at 10 uM relative to control; format: functional; conditions: read-out: GI
[51] = tested on: Hs-578T; test: Growth inhibition of human Hs-578T cells at 10 uM relative to control; format: functional; conditions: read-out: GI
[52] = tested on: BT-549; test: Growth inhibition of human BT-549 cells at 10 uM relative to control; format: functional; conditions: read-out: GI
[53] = tested on: SNB-75; test: Growth inhibition of human SNB-75 cells at 10 uM relative to control; format: functional; conditions: read-out: GI
[54] = tested on: NCI-H23; test: Growth inhibition of human NCI-H23 cells at 10 uM relative to control; format: functional; conditions: read-out: GI
[55] = tested on: OVCAR-5; test: Growth inhibition of human OVCAR-5 cells at 10 uM relative to control; format: functional; conditions: read-out: GI
[56] = tested on: RXF 393; test: Growth inhibition of human RXF 393 cells at 10 uM relative to control; format: functional; conditions: read-out: GI
[57] = tested on: K562; test: Growth inhibition of human K562 cells at 10 uM relative to control; format: functional; conditions: read-out: GI
[58] = tested on: MOLT-4; test: Growth inhibition of human MOLT-4 cells at 10 uM relative to control; format: functional; conditions: read-out: GI
[59] = tested on: MDA-MB-435; test: Growth inhibition of human MDA-MB-435 cells at 10 uM relative to control; format: functional; conditions: read-out: GI

SMILES: CCOC(=O)C1=CSC2=NC(/C=C/c3cc(OC)c(OC)c(OC)c3)=CC(c3cc(OC)c(OC)c(OC)c3)N12 (centres undefined)
- inhibition of growth at 10 µM [1]: 22.7%
- inhibition of growth at 10 µM [2]: 29.7%
- inhibition of growth at 10 µM [3]: < 10%
- inhibition of growth at 10 µM [4]: < 10%
- inhibition of growth at 10 µM [5]: 18%
- inhibition of growth at 10 µM [6]: < 10%
- inhibition of growth at 10 µM [7]: < 10%
- inhibition of growth at 10 µM [8]: < 10%
- inhibition of growth at 10 µM [9]: < 10%
- inhibition of growth at 10 µM [10]: < 10%
- inhibition of growth at 10 µM [11]: < 10%
- inhibition of growth at 10 µM [12]: < 10%
- inhibition of growth at 10 µM [13]: 32%
- inhibition of growth at 10 µM [14]: < 10%
- inhibition of growth at 10 µM [15]: < 10%
- inhibition of growth at 10 µM [16]: 44.4%
- inhibition of growth at 10 µM [17]: < 10%
- inhibition of growth at 10 µM [18]: < 10%
- inhibition of growth at 10 µM [19]: < 10%
- inhibition of growth at 10 µM [20]: < 10%
- inhibition of growth at 10 µM [21]: < 10%
- inhibition of growth at 10 µM [22]: < 10%
- inhibition of growth at 10 µM [23]: 18%
- inhibition of growth at 10 µM [24]: 69.3%
- inhibition of growth at 10 µM [25]: < 10%
- inhibition of growth at 10 µM [26]: < 10%
- inhibition of growth at 10 µM [27]: < 10%
- inhibition of growth at 10 µM [28]: < 10%
- inhibition of growth at 10 µM [29]: 13%
- inhibition of growth at 10 µM [30]: 17.2%
- inhibition of growth at 10 µM [31]: 35%
- inhibition of growth at 10 µM [32]: 59%
- inhibition of growth at 10 µM [33]: 13.7%
- inhibition of growth at 10 µM [34]: < 10%
- inhibition of growth at 10 µM [35]: 12.5%
- inhibition of growth at 10 µM [36]: 28.9%
- inhibition of growth at 10 µM [37]: < 10%
- IC50 [38]: 43.92 µg/mL (≈ 77.2 µM)
- inhibition of growth at 10 µM [39]: < 10%
- inhibition of growth at 10 µM [40]: 21.1%
- inhibition of growth at 10 µM [41]: < 10%
- inhibition of growth at 10 µM [42]: < 10%
- inhibition of growth at 10 µM [43]: < 10%
- inhibition of growth at 10 µM [44]: 47.8%
- inhibition of growth at 10 µM [45]: < 10%
- inhibition of growth at 10 µM [46]: 12%
- inhibition of growth at 10 µM [47]: 13.4%
- inhibition of growth at 10 µM [48]: < 10%
- inhibition of growth at 10 µM [49]: < 10%
- inhibition of growth at 10 µM [50]: 14.5%
- inhibition of growth at 10 µM [51]: < 10%
- inhibition of growth at 10 µM [52]: < 10%
- inhibition of growth at 10 µM [53]: 18.4%
- inhibition of growth at 10 µM [54]: < 10%
- inhibition of growth at 10 µM [55]: < 10%
- inhibition of growth at 10 µM [56]: < 10%
- inhibition of growth at 10 µM [57]: 35.7%
- inhibition of growth at 10 µM [58]: 25.1%
- inhibition of growth at 10 µM [59]: < 10%
